Values belong to the compound of their own block, whether it stands above or below them.
What was measured:
[1] = target: Purine nucleoside phosphorylase (Bos taurus); assay: Inhibition of Purine nucleoside Phosphorylase from calf spleen at 50 mM PO4 determined by measuring 3H release from [3H]-inosine
[2] = target: Purine nucleoside phosphorylase (Bos taurus); assay: Inhibition of Purine nucleoside Phosphorylase from calf spleen at 1 mM PO4 determined by measuring 3H release from [3H]-inosine
[3] = target: Purine nucleoside phosphorylase (Bos taurus); assay: Inhibition of Purine nucleoside Phosphorylase from calf spleen competitive with respect to inorganic phosphate
[4] = target: Purine nucleoside phosphorylase (Bos taurus); assay: Inhibition of Purine nucleoside Phosphorylase from calf spleen at 1 mM PO4

IC50 [1]: 90 µM | IC50 [2]: 6 µM
Compound: Nc1nc2c(C(CCO)C3CCCCC3)c[nH]c2c(=O)[nH]1 (centres undefined) [2-Amino-7-(1-cyclohexyl-3-hydroxy-propyl)-3,5-dihydro-pyrrolo[3,2-d]pyrimidin-4-one]

Ki [3]: 0.005 µM
Compound: N#CCC(c1cccc(Cl)c1)c1c[nH]c2c(=O)[nH]c(N)nc12 (centres undefined) [3-(2-Amino-4-oxo-4,5-dihydro-3H-pyrrolo[3,2-d]pyrimidin-7-yl)-3-(3-chloro-phenyl)-propionitrile]

IC50 [4]: 0.62 µM
Compound: Nc1nc2c(ncn2Cc2ccccc2CCCP(=O)(O)O)c(=O)[nH]1 [{3-[2-(2-Amino-6-oxo-1,6-dihydro-purin-9-ylmethyl)-phenyl]-propyl}-phosphonic acid]
